From patent publication US12527753B2, “Cysteamine for the treatment, mitigation and prevention of coronaviral, e.g., SARS-CoV-2, infections” (The Regents of the University of Michigan, priority 2020, dated 2026)

Test system: SARS-CoV-2 Variants Alpha, Beta, Gamma and Delta
Assay: In vitro activity against SARS-CoV-2 variants (pooled statements)

2-aminoethanethiol [cysteamine]
inactivation of the virus in tissue culture (10 mM solution, contingent on time of exposure and concentration): 85-100% | inactivation of the variants (10 mM, 15-90 minutes exposure): near complete inactivation
